Data published in patent US20170247693A1 (priority 2016, published 2017).

Test system: HepG2 cells
Details: normoxia

COc1cccc2c1C(=O)c1c(O)c3c(c(O)c1C2=O)C[C@@](O)(C(=O)CO)C[C@@H]3O[C@H]1C[C@H](N)[C@H](O)[C@H](C)O1 [DOX, Doxorubicin]
minimal concentration that diminished the growth of the treated cells (HepG2): 1 μm
decrease of cell viability (HepG2 infected with vACE-NT, 72 h after administering DOX (1 μm)): 27%
